In data set [1] the target is T1, EGFR (Homo sapiens, UniProt P00533). Kind of data set: In vitro inhibition of EGFR, Flash Plate or glass-fiber filter technology (C2). The data set is classed as biochemical. The arrangement: 0.5 μg EGFR-kinase domain/well. To be noted: EGFR-kinase domain, 5.0 μM unlabeled ATP, read-out: Kinase activity.(C2): pIC50 (converted). In a few lines:
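Two radiometric formats were used, each with 5.0 μM unlabeled ATP, [33P]ATP, 0.5 μg EGFR kinase domain and compounds from 1·10^−10 to 1·10^−6 M. Glass-fiber filter: 25° C for 10 min, pH 7.5, Mn2+/Mg2+, acid-stopped, phosphorimager read. Streptavidin Flash Plate: biotinylated poly(GT), pH 8.0, 30° C for 60 min.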
Target sequence in this assay (P00533 712-979 limits assumed): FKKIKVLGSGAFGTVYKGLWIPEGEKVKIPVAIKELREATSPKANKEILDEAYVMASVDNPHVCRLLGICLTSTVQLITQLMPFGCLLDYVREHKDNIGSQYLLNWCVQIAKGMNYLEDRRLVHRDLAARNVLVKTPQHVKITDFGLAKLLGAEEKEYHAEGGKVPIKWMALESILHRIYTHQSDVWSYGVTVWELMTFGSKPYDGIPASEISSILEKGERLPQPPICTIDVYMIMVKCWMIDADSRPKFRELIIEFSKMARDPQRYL

For data set [2], the target named is T1, EGFR. Kind of data set: ELISA assay of EGFR tyrosine kinase activity (C4). To be noted: poly(Glu, Tyr) coated plate, 5 μM ATP, room temperature 10 min. Format: biochemical. As to the method:
The EGFR ELISA is generally described by Yang, E. B. et al., 2001, Biochimica et Biophysica Acta, 1550; 144.
For the determination of EGFR tyrosine kinase activity, 100 μl of 0.4 μg/ml poly(Glu, Tyr) in PBS was coated per well on a 96-well microplate at 37° C. overnight. […] After washing three times with PBS the plates were either used immediately or stored at 4° C. Prior to the determination of the EGFR tyrosine kinase activity, the coated plates were washed two times with PBS. Next, to each well 88 μl of an ATP dilution (50 mM Tris HCl pH 8.0, 10 mM MgCl2, 100 μM Na3VO4, 1 mM DTT, 5 μM ATP) and 2 μl with various concentrations of the compounds to be tested, were added. The EGFR tyrosine kinase-catalysed reaction was started by the addition of 10 μl of diluted EGFR (dilution→0.05 μg per well enzyme diluted in 50 mM TrisHCl pH 8.0+0.1% BSA). After incubation at room temperature for 10 min, the reaction was stopped by washing five times with PBS with 0.1% Tween 20. Subsequently […] of recombinant anti-phosphotyrosine horseradish peroxidase conjugate (1:2500) in BSA (10 mg/ml in PBS) was added. After incubation at room temperature for 1 h, the microplate was washed five times with PBS/Tween 20. After the microplate was incubated with 100 μl of TMB-ELISA (1-step Ultra TMB-ELISA, Pierce) until colour development, 100 μl of 0.5 M H2SO4 was added to stop the reaction, and it was read in a microplate reader at 450-655 nm.
Target sequence in this assay (P00533 25-1210): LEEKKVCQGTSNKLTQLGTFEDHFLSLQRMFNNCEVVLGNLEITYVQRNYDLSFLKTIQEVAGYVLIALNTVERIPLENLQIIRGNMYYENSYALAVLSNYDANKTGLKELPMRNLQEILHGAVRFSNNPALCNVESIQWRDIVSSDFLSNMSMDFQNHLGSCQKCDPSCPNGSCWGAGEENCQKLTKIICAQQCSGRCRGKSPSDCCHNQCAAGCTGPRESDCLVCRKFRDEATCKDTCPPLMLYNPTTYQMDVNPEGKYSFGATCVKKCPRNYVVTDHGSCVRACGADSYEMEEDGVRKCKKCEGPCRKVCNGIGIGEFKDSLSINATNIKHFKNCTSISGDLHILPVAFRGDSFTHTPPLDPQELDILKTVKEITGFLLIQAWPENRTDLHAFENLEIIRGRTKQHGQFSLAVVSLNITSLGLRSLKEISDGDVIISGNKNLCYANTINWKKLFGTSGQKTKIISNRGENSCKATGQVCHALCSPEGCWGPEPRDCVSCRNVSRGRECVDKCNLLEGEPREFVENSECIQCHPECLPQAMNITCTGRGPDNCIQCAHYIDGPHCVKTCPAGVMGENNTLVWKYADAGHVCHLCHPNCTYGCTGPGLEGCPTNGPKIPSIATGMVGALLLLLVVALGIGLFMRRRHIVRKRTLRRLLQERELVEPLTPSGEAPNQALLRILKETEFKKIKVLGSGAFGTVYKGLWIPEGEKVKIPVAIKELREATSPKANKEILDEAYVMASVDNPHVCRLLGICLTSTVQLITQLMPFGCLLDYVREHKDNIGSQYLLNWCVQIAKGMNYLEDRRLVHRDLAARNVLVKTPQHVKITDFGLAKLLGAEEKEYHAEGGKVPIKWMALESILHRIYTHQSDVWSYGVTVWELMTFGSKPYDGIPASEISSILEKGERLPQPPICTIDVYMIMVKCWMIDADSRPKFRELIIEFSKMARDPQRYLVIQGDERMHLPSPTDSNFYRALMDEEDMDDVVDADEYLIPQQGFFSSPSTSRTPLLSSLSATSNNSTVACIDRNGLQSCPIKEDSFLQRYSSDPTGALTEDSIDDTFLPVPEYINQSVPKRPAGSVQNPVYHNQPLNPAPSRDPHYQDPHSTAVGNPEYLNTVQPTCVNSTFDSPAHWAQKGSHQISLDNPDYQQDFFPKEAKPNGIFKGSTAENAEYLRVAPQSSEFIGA

The subject of another data set is SKOV3 cells. Kind of data set: Serum starved proliferation assay on the ovarian carcinoma SKOV3 cells (C3). Format: cell-based. The note with it: Homo sapiens, SK-OV-3, 72 h, EGF stimulated (100 ng/ml, 72 hours, serum free) or 72 hours with compounds; MTT cell viability assay; read-out: SKOV3 cell (C3): pIC50 (converted). In outline: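 MTT viability read-out in SKOV3 cells after a 24 h pre-incubation in 10% FCS, in one of two formats. EGF-stimulated version: serum-free compound exposure followed by 100 ng/ml EGF (final) for 72 h at 37 °C, 5% CO2. Otherwise, compound alone for 72 h.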
In general terms: Formazan colour is commonly taken as a measure of viable cells.

Data set [3] has as its target T1, EGFR. Kind of data set: In vitro inhibition of EGFR using a scintillant proximity assay (C1). Format: biochemical. The arrangement: 0.5 μg EGFR-kinase domain/well. To be noted: EGFR-kinase domain, poly(GT)biotin, 5.0 μM unlabeled ATP, 30° C. 60 minutes; read-out: EGFR SPA (C1): IC50. As to the method:
In the present EGFR SPA kinase reaction assay, a kinase substrate consisting of biotinylated poly(L-glutamic acid-L-tyrosine) (poly(GT)biotin), is incubated with the aforementioned protein in the presence of (^33P) radiolabeled ATP. (^33P) phosphorylation of the substrate is subsequently measured as light energy emitted using streptavidin-coated SPA beads (Amersham Pharmacia Biotech) by trapping and quantifying the binding of the biotin tagged and radiolabeled substrate.
The EGFR SPA kinase reaction is performed at 30° C. for 60 minutes in a 96-well microtiter plate. For each of the tested compounds a full dose response 1·10^−6M to 1·10^−10M has been performed. IRESSA® and Tarceva™ (erlotinib) were used as reference compounds. The 100 μl reaction volume contains 54.5 mM TrisHCl pH 8.0, 10 mM MgCl2, 100 μM Na3VO4, 5.0 μM unlabeled ATP, 1 mM DTT, 0.009% BSA, 0.8 μCi ^33P-ATP, 0.35 μg/well poly(GT)biotin and 0.5 μg EGFR-kinase domain/well. The reaction is stopped by adding to each well 100 μl of the streptavidin beads (10 mg/ml in PBS+100 mM EDTA+100 μM ATP). The plates are than shaked at 300 rpm for 30 min to allow binding of the biotinylated substrate to the streptavidin coated beads. Than the beads are allowed to settle at the bottom of the plate for 30 minutes. The microtiterplates are centrifuges at 800 rpm for 10 minutes and the amount of phosphorylated (^33P) Poly(GT)biotin is determined by counting (30 sec/well) in a microtiterplate scintillation counter.
Target sequence in this assay (P00533 712-979 limits assumed): as the sequence (P00533 712-979 limits assumed) above

Another data set relates to A431 cells. As to the kind of experiment: Proliferation assay on the squamous carcinoma cell line A431 cells (C5). Format: cell-based. To be noted: Homo sapiens, A-431; 72 hours with compounds; MTT cell viability assay; read-out: A431 cell (C5): pIC50 (converted). As to the method:
The squamous carcinoma cell line (A431) was used in a cell proliferation assay, to assess the inhibitory effect of the compounds in whole cells.
In a first step the A431 cells were incubated for 24 hours in the presence of 10% FCS serum. In the second step the cells were incubated for 72 hours with the compounds to be tested at a final concentration of 100 ng/ml. The effect of the compounds on the cell proliferation was finally assessed in a standard MTT cell viability assay.

Some results are limits rather than exact numbers.

In turn, `COc1cc2ncnc3c2cc1OCCCCCOc1ccc(Cl)cc1N3` [Compound 4, 4,6-ethanediylidene-8H,18H-pyrimido[4,5-b][6,12,1]benzo-dioxaazacyclotetradecine, 16-chloro-9,10,11,12-tetrahydro-19-methoxy-] had a melting point of 213.5 to 221.2 °C. Also, the IC50 on EGFR [1] was 50.1 nM. The same molecule came in with an IC50 against EGFR [2] of 556 nM. Moreover, the IC50 with SKOV3 cells is 2880 nM. Besides, the IC50 on EGFR [3] was found to be 32.6 nM.

`COc1cc2ncnc3c2cc1OCCCCCCCCCOc1ccc(Cl)cc1N3` [Compound 9, 4,6-ethanediylidene-8H,22H-pyrimido[4,5-b][6,16,1]benzo-dioxaazacyclooctadecine, 20-chloro-9,10,11,12,13,14,15,16-octahydro-23-methoxy-] returned a melting point of 177.4 to 183.8 °C. Further, the IC50 on EGFR [1] is 39.8 nM. The molecule also came in with an IC50 on EGFR [2] greater than 1000 nM. Further, the IC50 on EGFR [3] turned out to be 6.79 nM.

`COC(=O)c1ccc2c(c1)Nc1ncnc3cc(OC)c(cc13)OCCCCCCO2` [Compound 10, 4,6-ethanediylidene-19H-pyrimido[4,5-b][6,13,1]benzodioxaazacyclo-pentadecine-17-carboxylic acid, 8,9,10,11,12,13-hexahydro-20-methoxy-, methyl ester]: the IC50 was 50.1 nM on EGFR [1], greater than 1000 nM against EGFR [2], greater than 10000 nM with SKOV3 cells and greater than 3160 nM with A431 cells.

As to `COc1cc2ncnc3c2cc1OCCCCCCOc1ccc(C(=O)O)cc1N3` [Compound 11, 4,6-ethanediylidene-19H-pyrimido[4,5-b][6,13,1]benzodioxaazacyclo-pentadecine-17-carboxylic acid, 8,9,10,11,12,13-hexahydro-20-methoxy-], the IC50 at EGFR [1] is greater than 10000 nM; on EGFR [2] it was greater than 1000 nM; with SKOV3 cells, greater than 10000 nM; in the data set on A431 cells it was greater than 3160 nM.

Take `COc1cc2ncnc3c2cc1OCCCCCCOc1ccc(C(=O)N2CCCC2)cc1N3` [Compound 12, pyrrolidine, 1-[(8,9,10,11,12,13-hexahydro-20-methoxy-4,6-ethane-diylidene-19H-pyrimido[4,5-b][6,13,1]benzodioxaazacyclopentadecin-17-yl)carbonyl]-]: the IC50 on EGFR [1] was greater than 10000 nM; at EGFR [2], greater than 1000 nM; in the data set on SKOV3 cells, greater than 10000 nM; in the data set on A431 cells it was greater than 3160 nM.

As for `COc1cc2ncnc3c2cc1OCCCCCCOc1ccc(C#N)cc1N3` [Compound 13, 4,6-ethanediylidene-19H-pyrimido[4,5-b][6,13,1]benzodioxaazacyclo-pentadecine-17-carbonitrile, 8,9,10,11,12,13-hexahydro-20-methoxy-], the IC50 was 316 nM at EGFR [1], greater than 1000 nM at EGFR [2], greater than 10000 nM in the data set with SKOV3 cells and greater than 3160 nM in the data set with A431 cells.

For `COc1cc2ncnc3c2cc1OCCCCCCOc1ccc(C(=O)N2CCOCC2)cc1N3` [Compound 14, morpholine, 4-[(8,9,10,11,12,13-hexahydro-20-methoxy-4,6-ethane-diylidene-19H-pyrimido[4,5-b][6,13,1]benzodioxaazacyclopentadecin-17-yl)carbonyl]-], the IC50 on EGFR [1] was greater than 10000 nM; against EGFR [2], greater than 1000 nM; with SKOV3 cells it was greater than 10000 nM; in the data set with A431 cells, greater than 3160 nM.

As to `Oc1cc2ncnc3c2cc1OCCCCCCOc1ccc(Br)cc1N3` [Compound 16, 4,6-ethanediylidene-19H-pyrimido[4,5-b][6,13,1]benzodioxaazacyclo-pentadecin-20-ol, 17-bromo-8,9,10,11,12,13-hexahydro-], the values for the IC50 at EGFR [1] and on EGFR [2] were 2510 nM and greater than 1000 nM, respectively.

Take `Brc1ccc2c(c1)Nc1ncnc3cc(OCCCN4CCOCC4)c(cc13)OCCCCCCO2` [Compound 17, 4,6-ethanediylidene-19H-pyrimido[4,5-b][6,13,1]benzodioxaazacyclo-pentadecine, 17-bromo-8,9,10,11,12,13-hexahydro-20-[3-(4-morpholinyl)propoxy]-acetic acid]: the IC50 at EGFR [1] was 39.8 nM; on EGFR [2] it was 269 nM; in the data set with SKOV3 cells it was 8320 nM; in the data set on A431 cells, 2510 nM.

In the case of `Brc1ccc2c(c1)Nc1ncnc3ccc(cc13)OCCCCCCO2` [Compound 18, 4,6-ethanediylidene-19H-pyrimido[4,5-b][6,13,1]benzodioxaazacyclo-pentadecine, 17-bromo-8,9,10,11,12,13-hexahydro-], the IC50 on EGFR [1] is 79.4 nM; at EGFR [2], greater than 1000 nM; in the data set on SKOV3 cells, greater than 10000 nM.

For `COc1cc2ncnc3c2cc1OCCCCCCCc1ccc(Br)cc1N3` [Compound 21, 4,6-ethanediylidenepyrimido[4,5-b][6,1]benzoxaazacyclopentadecine, 17-bromo-8,9,10,11,12,13,14,19-octahydro-20-methoxy-], the IC50 at EGFR [1] was 10 nM; against EGFR [2] it was 158 nM; in the data set on SKOV3 cells it was 813 nM; in the data set on A431 cells, greater than 3160 nM.

As to `COc1cc2ncnc3c2cc1OCCCCCN(C)Cc1ccc(Br)cc1N3` [Compound 22, 4,6-ethanediylidenepyrimido[4,5-b][6,1,12]benzoxadiazacyclo-pentadecine, 17-bromo-8,9,10,11,12,13,14,19-octahydro-20-methoxy-13-methyl-], the IC50 was 15.8 nM at EGFR [1], 38.4 nM at EGFR [2], 257 nM in the data set with SKOV3 cells and 1580 nM in the data set on A431 cells.

With `COc1cc2ncnc3c2cc1OCCCCCCCCON=Cc1ccc(Cl)cc1N3` [Compound 24, 4,6-ethanediylidene-23H-pyrimido[4,5-b][6,15,1,16]benzo-dioxadiazacyclononadecine, 21-chloro-8,9,10,11,12,13,14,15-octahydro-24-methoxy-], the melting point is 127.2 to 132.2 °C. Moreover, on EGFR [1], the IC50 is 20 nM. For the same molecule, in the data set with SKOV3 cells, the IC50 is 3160 nM. The IC50 in the data set on A431 cells is greater than 3160 nM.

As to `COc1cc2ncnc3c2cc1OCCCC(=O)NCCCc1ccc(Cl)cc1N3` [Compound 40, 4,6-ethanediylidene-8H-pyrimido[4,5-b][6,1,11]benzoxadiazacyclohexadecin-11(12H)-one, 18-chloro-9,10,13,14,15,20-hexahydro-21-methoxy-], the IC50 at EGFR [1] was 31.6 nM; with SKOV3 cells, 50.1 nM; in the data set with A431 cells, 631 nM.

Broadly, the melting point is the temperature, or range, at which the solid turns liquid.

(Values after patent publication US8394786B2, “Quinazoline derivatives” (Janssen Pharmaceutica N.V., priority 2003, dated 2013).)
